Test system: Caco-2 cell line
Experiment: Cytotoxicity MTS assay, Caco-2 cell line
Format: cell-based
Conditions: for OD490 Mean / OD490 Well 1 / OD490 Well 2 / OD490 Well 3: Caco-2 cell line; for IC50: MTS assay, 24 h exposure
Description: The positive compounds (IC50 < 100 μM) obtained from the primary Eg5 motor protein ATPase assay were tested for antiproliferative activity in vitro against Caco-2 cell line, Hela cell line, L929 cell line and T24 cell line by performing MTS assay. Cells were introduced into 96-well plates at a density of 1000 cells per well. After 24 h incubation, the cells were exposed with compounds at final concentrations ranging from 0.5 to 100 µM for 24 h. DMSO was used at a final concentration of 0.025% as blank control, monastrol was used as the positive control. Then 20 µL (CellTiter 96® AQueous One Solution Promega, Madison, WI, USA) reagent was added in each well. After 2 h at 37 °C in a 80% humidified, 5% CO2 atmosphere, the absorbance at 490 nm was recorded using a microplate reader (BIO-RAD iMark^TM). The results were obtained in three independent duplicate experiments. The primary data were shown in Supplementary Materials Tables S4–S7. The IC50 values for these compounds were calculated from a non-linear regression graph plotted between the percentage of cell viability and concentration with SPSS17.0 software.

## CCOc1ccccc1C1NC(=S)NC(C)=C1C(=O)Nc1ccc(Cl)cc1 (centres unmarked) [C9]
0.5μM, first assay
  OD490 Mean: 0.6579
  OD490 Well 1: 0.6600
  OD490 Well 2: 0.6452
  OD490 Well 3: 0.6685
0.5μM, second assay
  OD490 Mean: 0.6430
  OD490 Well 1: 0.6499
  OD490 Well 2: 0.6217
  OD490 Well 3: 0.6574
0.5μM, third assay
  OD490 Mean: 0.6809
  OD490 Well 1: 0.6676
  OD490 Well 2: 0.6999
  OD490 Well 3: 0.6752
1μM, first assay
  OD490 Mean: 0.6557
  OD490 Well 1: 0.6594
  OD490 Well 2: 0.6683
  OD490 Well 3: 0.6393
1μM, second assay
  OD490 Mean: 0.6328
  OD490 Well 1: 0.6398
  OD490 Well 2: 0.6387
  OD490 Well 3: 0.6200
1μM, third assay
  OD490 Mean: 0.6578
  OD490 Well 1: 0.6898
  OD490 Well 2: 0.6914
  OD490 Well 3: 0.5921
10μM, first assay
  OD490 Mean: 0.6390
  OD490 Well 1: 0.5664
  OD490 Well 2: 0.6539
  OD490 Well 3: 0.6968
10μM, second assay
  OD490 Mean: 0.5939
  OD490 Well 1: 0.5553
  OD490 Well 2: 0.5431
  OD490 Well 3: 0.6832
10μM, third assay
  OD490 Mean: 0.6521
  OD490 Well 1: 0.6349
  OD490 Well 2: 0.6214
  OD490 Well 3: 0.7001
25μM, first assay
  OD490 Mean: 0.5635
  OD490 Well 1: 0.5780
  OD490 Well 2: 0.5488
  OD490 Well 3: 0.5637
25μM, second assay
  OD490 Mean: 0.5347
  OD490 Well 1: 0.5232
  OD490 Well 2: 0.5214
  OD490 Well 3: 0.5594
25μM, third assay
  OD490 Mean: 0.6041
  OD490 Well 1: 0.6789
  OD490 Well 2: 0.5214
  OD490 Well 3: 0.6121
50μM, first assay
  OD490 Mean: 0.4407
  OD490 Well 1: 0.4378
  OD490 Well 2: 0.4511
  OD490 Well 3: 0.4331
50μM, second assay
  OD490 Mean: 0.4117
  OD490 Well 1: 0.3953
  OD490 Well 2: 0.4678
  OD490 Well 3: 0.3721
50μM, third assay
  OD490 Mean: 0.4510
  OD490 Well 1: 0.4963
  OD490 Well 2: 0.3954
  OD490 Well 3: 0.4613
100μM, first assay
  OD490 Mean: 0.3208
  OD490 Well 1: 0.2950
  OD490 Well 2: 0.3313
  OD490 Well 3: 0.3360
100μM, second assay
  OD490 Mean: 0.2995
  OD490 Well 1: 0.2898
  OD490 Well 2: 0.3121
  OD490 Well 3: 0.2965
100μM, third assay
  OD490 Mean: 0.3309
  OD490 Well 1: 0.3633
  OD490 Well 2: 0.2374
  OD490 Well 3: 0.3921
Homo sapiens, Caco-2
  IC50: 65.8 µM

## CCOC(=O)c1c(C2NC(=O)NC(C)=C2C(=O)Nc2ccccc2OC)[nH]c(C(=O)OC)c1C (centres unmarked) [D1]
0.5μM, first assay
  OD490 Mean: 0.6107
  OD490 Well 1: 0.5649
  OD490 Well 2: 0.5391
  OD490 Well 3: 0.7282
0.5μM, second assay
  OD490 Mean: 0.6066
  OD490 Well 1: 0.6391
  OD490 Well 2: 0.6324
  OD490 Well 3: 0.5484
0.5μM, third assay
  OD490 Mean: 0.6142
  OD490 Well 1: 0.6774
  OD490 Well 2: 0.5749
  OD490 Well 3: 0.5903
1μM, first assay
  OD490 Mean: 0.6086
  OD490 Well 1: 0.6046
  OD490 Well 2: 0.6209
  OD490 Well 3: 0.6002
1μM, second assay
  OD490 Mean: 0.6031
  OD490 Well 1: 0.6102
  OD490 Well 2: 0.5846
  OD490 Well 3: 0.6145
1μM, third assay
  OD490 Mean: 0.6182
  OD490 Well 1: 0.6046
  OD490 Well 2: 0.6112
  OD490 Well 3: 0.6387
10μM, first assay
  OD490 Mean: 0.6584
  OD490 Well 1: 0.6611
  OD490 Well 2: 0.6501
  OD490 Well 3: 0.6639
10μM, second assay
  OD490 Mean: 0.6246
  OD490 Well 1: 0.6493
  OD490 Well 2: 0.5502
  OD490 Well 3: 0.6742
10μM, third assay
  OD490 Mean: 0.6177
  OD490 Well 1: 0.6611
  OD490 Well 2: 0.5578
  OD490 Well 3: 0.6341
25μM, first assay
  OD490 Mean: 0.5948
  OD490 Well 1: 0.6149
  OD490 Well 2: 0.5791
  OD490 Well 3: 0.5903
25μM, second assay
  OD490 Mean: 0.5865
  OD490 Well 1: 0.5801
  OD490 Well 2: 0.6127
  OD490 Well 3: 0.5666
25μM, third assay
  OD490 Mean: 0.5866
  OD490 Well 1: 0.5903
  OD490 Well 2: 0.5721
  OD490 Well 3: 0.5974
50μM, first assay
  OD490 Mean: 0.5045
  OD490 Well 1: 0.5048
  OD490 Well 2: 0.5114
  OD490 Well 3: 0.4972
50μM, second assay
  OD490 Mean: 0.5178
  OD490 Well 1: 0.4983
  OD490 Well 2: 0.5020
  OD490 Well 3: 0.5531
50μM, third assay
  OD490 Mean: 0.5361
  OD490 Well 1: 0.6048
  OD490 Well 2: 0.5048
  OD490 Well 3: 0.4988
100μM, first assay
  OD490 Mean: 0.5483
  OD490 Well 1: 0.6273
  OD490 Well 2: 0.5214
  OD490 Well 3: 0.4962
100μM, second assay
  OD490 Mean: 0.5031
  OD490 Well 1: 0.5662
  OD490 Well 2: 0.4999
  OD490 Well 3: 0.4431
100μM, third assay
  OD490 Mean: 0.4792
  OD490 Well 1: 0.5214
  OD490 Well 2: 0.4347
  OD490 Well 3: 0.4814
  IC50: 108 µM
